Test results: paper PMC12749748, “Chemically-induced degradation of the endoplasmic-reticulum stress sensor IRE1 by a VHL-recruiting chimera” (Nature Communications, 2025)

Assays:
AMO1 cells = test: Global proteomics of protein depletion in AMO1 cells; type: cell-based; details: 1 µM, 4 h
Description: One milligram of protein lysate in denaturing buffer (8 M Urea, 20 mM HEPES, pH 8.0) was reduced (5 mM dithiothreitol (DTT), 45 min at 37 °C), alkylated (15 mM iodoacetamide (IAA), 20 min at room temperature in the dark), and quenched (5 mM DTT, 15 min at room temperature in the dark). Proteins were pelleted by chloroform-methanol precipitation. The resulting pellet was resuspended in denaturing buffer, diluted to 4 M Urea, and digested for 4 h at 37 °C with lysyl-endopeptidase (Wako) at an enzyme to protein ratio of 1:100. The sample was further diluted to 1.3 M Urea and subjected to overnight enzymatic digestion at 37 °C with sequencing grade trypsin (Promega, enzyme: protein ratio = 1:50). Resultant peptides were acidified with 20% Trifluoroacetic acid (TFA, 1% final concentration), centrifuged at 18,000 × g for 15 min, and desalted using a Sep-Pak C18 column (Waters). […]
For the global proteome, LC-MS/MS analysis was performed by injecting 1 μL of each fraction on an Orbitrap Eclipse mass spectrometer (Thermo Fisher) coupled to a Dionex Ultimate 3000 RSLC (Thermo Fisher) employing a 25 cm IonOpticks Aurora Series column (IonOpticks, Parkville, Australia) with a gradient of 2% to 30% buffer B (98% ACN, 2% H2O with 0.1% FA, flow rate = 300 nL/min). Global proteome samples were analyzed with a total run time of 95 min. […]

IRE1 = molecular target: T1, IRE1 (Homo sapiens, UniProt O75460+P40337); test: NanoLuc signal IRE1 depletion, WT IRE1-NanoLuc, HEK293T cells; type: cell-based
T1 construct: N2731 (HaloTag-VHL); host or cells: HEK293T
Description: 8 × 10^5 293T cells per well were seeded in 6-well plates (Costar, #3516) and incubated at 37 °C, 5% CO2 for 6 h. A mixture of 0.2 µg ERN1 (IRE1)-NanoLuc Fusion Vector (Promega, NV1321), 2 µg HaloTag-VHL Fusion Vector (Promega, N2731), 6 µl FuGENE HD Transfection Reagent (Promega, E2311), and 100 µL Opti-MEM I reduced serum medium (Gibco, #31985062) per well was incubated at room temperature for 20 min before adding to cells. For expression of IRE1 mutants, site-directed mutagenesis was performed using the ERN1-NanoLuc Fusion Vector as the DNA template, and the transfection mixture was prepared in the same way as WT IRE1. After 18 h, cells from 6-well plates were trypsinized, resuspended in Opti-MEM I reduced serum medium, and reseeded into 96-well plates (Costar, #3917), with or without the addition of HaloTag NanoBRET 618 Ligand (Promega, G9801). After 18 h of incubation, a titration of G6374 (dilutions made in Opti-MEM I reduced serum medium) was added to the cells. After 2 h of G6374 treatment, NanoBRET Nano-Glo Substrate (Promega, N1571) was added to cells. The 96-well plates were imaged by GloMax Discover Microplate Reader (Promega, GM3000) with the default “BRET: NanoBRET 618” protocol (Donor: 450 BP; Acceptor: 600 LP; Integration: 0.3 s). Data analysis was performed according to the user manual.

T1 sequence (O75460 19-977): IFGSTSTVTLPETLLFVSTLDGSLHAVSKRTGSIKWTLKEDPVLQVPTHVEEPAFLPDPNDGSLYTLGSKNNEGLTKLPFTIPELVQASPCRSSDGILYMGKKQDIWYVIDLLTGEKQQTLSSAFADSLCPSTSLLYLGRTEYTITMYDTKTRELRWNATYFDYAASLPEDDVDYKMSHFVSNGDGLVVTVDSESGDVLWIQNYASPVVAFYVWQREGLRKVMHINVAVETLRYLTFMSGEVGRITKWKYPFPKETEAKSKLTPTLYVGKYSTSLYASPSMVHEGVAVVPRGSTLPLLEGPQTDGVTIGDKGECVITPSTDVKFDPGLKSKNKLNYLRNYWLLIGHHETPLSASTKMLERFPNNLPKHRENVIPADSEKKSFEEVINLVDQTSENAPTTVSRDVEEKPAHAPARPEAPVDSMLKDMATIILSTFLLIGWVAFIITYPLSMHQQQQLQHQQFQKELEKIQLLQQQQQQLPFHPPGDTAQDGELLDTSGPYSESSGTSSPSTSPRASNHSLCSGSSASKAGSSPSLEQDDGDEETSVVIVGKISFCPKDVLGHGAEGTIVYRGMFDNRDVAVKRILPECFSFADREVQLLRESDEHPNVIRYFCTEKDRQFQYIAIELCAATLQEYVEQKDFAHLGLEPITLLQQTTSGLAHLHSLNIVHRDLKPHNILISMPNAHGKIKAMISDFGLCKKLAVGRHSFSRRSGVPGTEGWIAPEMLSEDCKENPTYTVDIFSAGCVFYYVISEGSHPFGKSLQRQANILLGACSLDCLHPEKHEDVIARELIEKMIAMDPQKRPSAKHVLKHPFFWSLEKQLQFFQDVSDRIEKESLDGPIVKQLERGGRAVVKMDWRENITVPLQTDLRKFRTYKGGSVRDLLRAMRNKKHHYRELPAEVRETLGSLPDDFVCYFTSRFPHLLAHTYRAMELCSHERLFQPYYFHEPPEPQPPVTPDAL
T1 sequence (P40337 whole entry): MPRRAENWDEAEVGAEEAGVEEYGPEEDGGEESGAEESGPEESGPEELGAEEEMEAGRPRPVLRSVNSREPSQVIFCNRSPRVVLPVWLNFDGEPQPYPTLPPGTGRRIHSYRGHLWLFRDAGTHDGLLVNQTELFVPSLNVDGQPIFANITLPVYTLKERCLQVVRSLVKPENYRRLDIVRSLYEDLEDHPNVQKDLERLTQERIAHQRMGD
T1 sequence (Q15369 whole entry partner): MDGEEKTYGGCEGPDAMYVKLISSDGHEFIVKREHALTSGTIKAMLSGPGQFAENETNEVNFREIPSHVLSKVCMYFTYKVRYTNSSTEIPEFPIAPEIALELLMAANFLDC
T1 sequence (Q15370 whole entry partner): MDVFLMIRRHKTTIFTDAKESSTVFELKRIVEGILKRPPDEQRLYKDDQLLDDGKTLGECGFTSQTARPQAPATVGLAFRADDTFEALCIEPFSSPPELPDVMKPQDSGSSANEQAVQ
T1 sequence (Q13617 whole entry partner): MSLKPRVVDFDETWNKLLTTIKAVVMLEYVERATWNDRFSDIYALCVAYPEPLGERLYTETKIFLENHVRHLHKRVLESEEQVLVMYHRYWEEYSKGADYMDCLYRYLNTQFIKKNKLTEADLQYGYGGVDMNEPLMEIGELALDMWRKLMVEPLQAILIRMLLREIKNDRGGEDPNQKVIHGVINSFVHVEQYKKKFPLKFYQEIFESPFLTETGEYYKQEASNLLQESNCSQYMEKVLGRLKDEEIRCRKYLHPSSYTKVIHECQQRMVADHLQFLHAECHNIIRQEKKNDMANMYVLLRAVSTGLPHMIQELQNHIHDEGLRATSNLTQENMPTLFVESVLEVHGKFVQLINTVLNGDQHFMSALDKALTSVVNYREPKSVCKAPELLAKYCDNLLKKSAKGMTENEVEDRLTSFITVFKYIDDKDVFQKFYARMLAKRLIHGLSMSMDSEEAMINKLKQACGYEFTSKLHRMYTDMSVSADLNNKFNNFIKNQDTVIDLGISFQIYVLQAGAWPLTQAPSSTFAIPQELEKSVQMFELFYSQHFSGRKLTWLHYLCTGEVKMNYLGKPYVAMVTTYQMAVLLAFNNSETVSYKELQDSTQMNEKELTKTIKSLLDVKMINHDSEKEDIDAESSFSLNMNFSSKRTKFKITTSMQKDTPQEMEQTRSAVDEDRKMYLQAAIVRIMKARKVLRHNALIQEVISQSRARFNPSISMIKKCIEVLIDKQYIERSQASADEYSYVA
T1 sequence (P62877 whole entry partner): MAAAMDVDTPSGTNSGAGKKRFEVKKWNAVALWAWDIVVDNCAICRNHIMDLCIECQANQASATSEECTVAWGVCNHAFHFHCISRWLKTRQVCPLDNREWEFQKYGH

With `Cc1ncsc1-c1ccc(CNC(=O)[C@@H]2C[C@@H](O)CN2C(=O)[C@@H](NC(=O)CCCCN2CCN([C@H]3CC[C@H](Nc4ncc5ccc(=O)n(C(C)C)c5n4)CC3)CC2)C(C)(C)C)cc1` [G6374] the “protein depletion by global proteomics, G6374 versus G2642” value (AMO1 cells) was “IRE1 as the most substantially and significantly depleted protein target”, the Dmax (IRE1; HEK-293T, 2 h, n = 3, mean ± SEM) was 78% and the DC50 (IRE1; estimated) was 130 nM.
